pIC50: −log10 of the molar value. Several values for one entry are separate records, joined by “and”; a condition that tells them apart may be missing. Equal values may be shown once.

Sequence of Nonstructural protein 3 (A0A024AXB9 whole entry): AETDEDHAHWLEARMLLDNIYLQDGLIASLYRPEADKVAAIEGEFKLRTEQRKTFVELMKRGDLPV

This experiment has as its target Nonstructural protein 3 (Zika virus, UniProt A0A024AXB9). The experiment can be described thus: Functional biochemical assay to identify treatments for viral infectious disease that targets Zika NS2B-NS3 protease. Utilizing a direct enzyme activity measurement method, reading the fluorescence intensity is used to characterize the relative potency of inhibitors as IC50. Set-up: species or system PRVABC59.
Broadly, the pIC50 is the IC50 on a negative log10 scale, so that one unit is a factor of ten. `O=C(O)c1cc(Cl)ccc1S(=O)(=O)NC1CCN(Cc2ccc(F)c(F)c2)CC1`: the pIC50 was < 4.00.

In the case of `CCN1CCN(c2ccc(NS(=O)(=O)c3ccc(Cl)cc3C(=O)O)cc2)CC1`, the pIC50 was < 4.00.

Turning to `CCn1c(=O)c(N2C[C@H]3CCC[C@H]2C3)nc2ccccc21`, the pIC50 was < 4.00.

Turning to `O=C(O)c1cc(Cl)ccc1S(=O)(=O)Nc1ccc(N2CCCCC2)c(Cl)c1`, the pIC50 was < 4.00.

As for `O=C(O)c1cc(Cl)ccc1S(=O)(=O)NC1CCN(c2ccc(C(F)(F)F)cn2)CC1`, the pIC50 is < 4.00.

For `O=C(O)Cc1cc(NS(=O)(=O)c2ccc(Oc3ccccc3Cl)cc2)ccc1Cl`, the pIC50 is < 4.00.

In the case of `CCC(=O)N1CCc2ccc(NS(=O)(=O)c3ccc(Cl)cc3C(=O)O)cc21`, the pIC50 is < 4.00.

Turning to `Cc1nn(C)cc1-c1ccc(S(=O)(=O)Nc2ccc(Cl)cc2C(=O)O)cc1`, the pIC50 is < 4.00.

On to `O=C(Cn1ccnc(N2CC[C@H](CO)C2)c1=O)NCc1nccs1`, for which the pIC50 is < 4.00.

Turning to `CCn1ccnc(N2C[C@H](c3c[nH]c4ccccc34)[C@H](N3C(=O)c4ccccc4C3=O)C2)c1=O`, the pIC50 was < 4.00.

In the case of `O=C(Nc1ccc(NS(=O)(=O)c2ccc(Cl)cc2C(=O)O)cc1)c1ccccc1`, the pIC50 was < 4.00.

Take `COc1ccc(N2CCC(NS(=O)(=O)c3ccc(Cl)cc3C(=O)O)CC2)cc1`: the pIC50 is < 4.00.

As for `O=C(O)c1cc(Cl)ccc1S(=O)(=O)N[C@H]1CC[C@@H](Oc2ccccc2)CC1`, the pIC50 was < 4.00.

`COc1ccc(NS(=O)(=O)c2ccc(Cl)cc2C(=O)O)cc1-n1nnnc1C`: the pIC50 is < 4.00.

Turning to `NCc1cccc(NC(=O)[C@H](NC(=O)Cc2ccccc2)c2ccc(OCc3ccccc3)cc2)c1`, the pIC50 was 4.54 and 4.55.

The molecule `O=C(O)c1cc(Cl)ccc1NS(=O)(=O)c1ccc(-c2ccccc2Cl)cc1` gave a negative-log IC50 (pIC50) of 4.75.

The molecule `NCc1cccc(NC(=O)[C@H](NC(=O)OCc2ccccc2)c2ccc(Br)cc2F)c1` gave a pIC50 of 4.14. Compared with the last molecule, the pIC50 is 0.61 log units lower.

For `Cn1ccnc(N2CCC(NS(=O)(=O)c3ccc(Cl)cc3C(=O)O)CC2)c1=O`, the pIC50 was < 4.00.

Turning to `Cn1cc(-c2cccc([C@H](NC(=O)OCc3ccccc3)C(=O)Nc3cccc(CN)c3)c2)cn1`, the pIC50 is < 4.00.

For the molecule `COCc1cc(Cl)ccc1NS(=O)(=O)c1ccc(Oc2ccccc2Cl)cc1`, the pIC50 was < 4.00.

As to `CCN(C(=O)Cn1ccnc(N2CC[C@H](CO)C2)c1=O)C(C)C`, the negative-log IC50 (pIC50) is < 4.00.

For the molecule `NCc1cccc(NC(=O)c2cc(NC(=O)OCc3ccccc3)c(=O)n3c2CCCC3)c1`, the pIC50 is < 4.00.

Molecule `COc1ncccc1-c1cccc([C@H](NC(=O)OCc2ccccc2)C(=O)Nc2cccc(CN)c2)c1` had a pIC50 of 4.17.

With `O=C(O)c1cc(Cl)ccc1S(=O)(=O)Nc1ccc(CCN2CCCC2)cc1`, the pIC50 is < 4.00.

In the case of `Cc1cc(N2CCCCC2)ccc1NS(=O)(=O)c1ccc(Cl)cc1C(=O)O`, the pIC50 was < 4.00.

`NCc1cccc(NC(=O)[C@H](NC(=O)c2ccns2)c2ccc(OCc3ccccc3)cc2)c1` gave a pIC50 of 4.02.

With `COc1ccc(NS(=O)(=O)c2ccc(Cl)cc2C(=O)O)cc1N1CCCC1=O`, the pIC50 is < 4.00.

`O=C(O)c1cc(Cl)ccc1S(=O)(=O)Nc1ccc(F)c(N2CCNC2=O)c1`: the pIC50 is < 4.00.

With `Cc1nccn1-c1ccc(NS(=O)(=O)c2ccc(Cl)cc2C(=O)O)cc1F`, the pIC50 is < 4.00.

In turn, `O=C(O)c1cc(Cl)ccc1NS(=O)(=O)c1ccc(-c2ccccc2F)cc1` had a pIC50 of 4.53.

As to `O=C(O)c1cc(Cl)ccc1S(=O)(=O)Nc1ccc(N2CCCS2(=O)=O)cc1`, the pIC50 is < 4.00.

In the case of `Cc1cc(N2CCC(NS(=O)(=O)c3ccc(Cl)cc3C(=O)O)CC2)nc(C)n1`, the pIC50 was < 4.00.

Consider `CCOc1cccc(-c2ccc(S(=O)(=O)Nc3ccc(Cl)cc3C(=O)O)cc2)c1`, for which the pIC50 was 4.83 and 4.86.

Regarding `O=C(Cn1ccnc(N2CC[C@H](CO)C2)c1=O)Nc1ccccc1`, the pIC50 is < 4.00.

As for `CCn1c(=O)c(N2C[C@H]3C[C@H]2CS(=O)(=O)C3)nc2ccccc21`, the pIC50 was < 4.00.

`CS(=O)(=O)c1ccc(-c2ccc(S(=O)(=O)Nc3ccc(Cl)cc3C(=O)O)cc2)cc1` had a pIC50 of 4.11.

Take `CCn1c(=O)c(N2CC[C@H]3[C@H]2[C@H]3C(F)(F)F)nc2ccccc21`: the pIC50 was < 4.00.

Molecule `CS(=O)(=O)c1ccc(-c2cccc([C@H](NC(=O)OCc3ccccc3)C(=O)Nc3cccc(CN)c3)c2)cc1` showed a pIC50 of 4.15.

With `O=C(O)c1cc(Cl)ccc1NS(=O)(=O)c1ccc(-c2cccnc2)cc1`, the pIC50 is < 4.00.

Take `O=C(O)c1cc(Cl)ccc1S(=O)(=O)NC1CCC(N2CCCCC2=O)CC1` (configuration not stated): the negative-log IC50 (pIC50) is < 4.00.

With `O=C(O)c1cc(Cl)ccc1S(=O)(=O)Nc1ccc(Oc2ccccn2)cc1`, the pIC50 is < 4.00.

In the case of `Cc1ccc(C(=O)N[C@H](C(=O)Nc2cccc(CN)c2)c2ccc(OCc3ccccc3)cc2)s1`, the negative logarithm of the IC50 (pIC50) is 4.22.

With `CS(=O)(=O)c1cncc(-c2cccc([C@H](NC(=O)OCc3ccccc3)C(=O)Nc3cccc(CN)c3)c2)c1`, the pIC50 was 4.22.

On to `O=C(O)c1cc(Cl)ccc1S(=O)(=O)Nc1ccc(N2CCCCC2)c(F)c1`, for which the pIC50 was < 4.00.

For `CCN1C[C@H]2C[C@@H]1CN2c1nc2ccccc2n(CC)c1=O`, the pIC50 is < 4.00.

With `Cc1ccc(S(=O)(=O)N2CCC(NS(=O)(=O)c3ccc(Cl)cc3C(=O)O)CC2)cc1`, the pIC50 was < 4.00.

In the case of `Cc1cc(OCc2ccccc2)ccc1NS(=O)(=O)c1ccc(Cl)cc1C(=O)O`, the pIC50 is < 4.00.

For the molecule `CCn1c(=O)c(N2CCC[C@@H]2c2cncn2C)nc2ccccc21`, the pIC50 was < 4.00.

Turning to `CC(C)(C)OC(=O)NCc1cccc(NC(=O)[C@H](NC(=O)OCc2ccccc2)C2CCNCC2)c1`, the pIC50 is < 4.00.

Molecule `N#Cc1ccccc1-c1ccc(S(=O)(=O)Nc2ccc(Cl)cc2C(=O)O)cc1` gave a pIC50 of 4.10.

With `CCn1c(=O)c(N2CCC[C@H]2C(=O)NC2CC2)nc2ccccc21`, the pIC50 is < 4.00.

Consider `NCc1cccc(NC(=O)[C@H](NC(=O)CCc2ccccc2)c2ccc(OCc3ccccc3)cc2)c1`, for which the pIC50 was 4.82 and 4.67.

As for `NCc1cccc(NC(=O)[C@H](NC(=O)OCc2ccccc2)c2cccc(C3=CCCOC3)c2)c1`, the negative-log IC50 (pIC50) was 4.03.

`O=C(O)c1cc(Cl)ccc1S(=O)(=O)NC1CCN(CC2CCOCC2)CC1`: the negative-log IC50 (pIC50) was < 4.00.

Turning to `NCc1cccc(NC(=O)c2cc(NC(=O)OCc3ccccc3)cc3c2OC(F)(F)O3)c1`, the pIC50 was < 4.00.

Regarding `O=C(O)c1cc(Cl)ccc1S(=O)(=O)Nc1ccc(N2CCCCCC2)cc1`, the pIC50 is < 4.00.

With `COc1ccc(NS(=O)(=O)c2ccc(Cl)cc2C(=O)O)cc1OC1CCCC1`, the pIC50 is < 4.00.

Consider `O=C(O)c1cc(Cl)ccc1NS(=O)(=O)c1ccc(-c2cn[nH]c2)cc1`, for which the pIC50 was < 4.00.

In the case of `CCOc1cc(N2CCN(C)CC2)ccc1NS(=O)(=O)c1ccc(Cl)cc1C(=O)O`, the pIC50 was < 4.00.

For the molecule `O=C(O)c1cc(Cl)c(F)cc1S(=O)(=O)Nc1ccc(Oc2ccccc2Cl)cc1`, the pIC50 was 4.47.

Turning to `NCc1ccc(NC(=O)c2cc(Cl)cc(NC(=O)OCc3ccccc3)c2)cc1`, the pIC50 was 4.99.

On to `O=C(O)c1cc(Cl)ccc1S(=O)(=O)NC1CCN(S(=O)(=O)c2ccc(I)cc2)CC1`, for which the pIC50 was < 4.00.

With `O=C(O)c1cc(Cl)ccc1S(=O)(=O)Nc1ccc(-c2cccc(F)c2)cc1`, the pIC50 was < 4.00.

`O=C(O)c1cc(Cl)ccc1NS(=O)(=O)c1ccc(-c2cccc(F)c2F)cc1` gave a pIC50 of 4.59.

On to `CC(=O)Nc1cccc(-c2ccc(S(=O)(=O)Nc3ccc(Cl)cc3C(=O)O)cc2)c1`, for which the pIC50 was < 4.00.

Regarding `CCN1C(=O)CCc2cc(NS(=O)(=O)c3ccc(Cl)cc3C(=O)O)ccc21`, the pIC50 was < 4.00.

`CN(C(=O)OCc1ccccc1)[C@H](C(=O)Nc1cccc(CN)c1)c1ccc(OCc2ccccc2)cc1` gave a pIC50 of 4.63.

Consider `O=C(O)c1cc(Cl)ccc1S(=O)(=O)NC1CCN(Cc2ccccn2)CC1`, for which the pIC50 is < 4.00.

Consider `CCn1c(=O)c(N2C[C@H](C)C[C@H]2c2ccccc2)nc2ccccc21`, for which the negative-log IC50 (pIC50) was < 4.00.

As for `O=C(O)c1cc(Cl)ccc1S(=O)(=O)N[C@H]1CCN(Cc2ccccc2)C2(CC2)C1`, the pIC50 was < 4.00.

In the case of `CS(=O)(=O)c1ccc(-c2cccc([C@H](NC(=O)OCc3ccccc3)C(=O)Nc3cccc(CN)c3)c2)cn1`, the pIC50 is < 4.00.

With `CC1(NS(=O)(=O)c2ccc(Cl)cc2C(=O)O)CCN(c2ccccc2)CC1`, the pIC50 was < 4.00.

With `CCOCC(=O)N[C@H](C(=O)Nc1cccc(CN)c1)c1ccc(OCc2ccccc2)cc1`, the pIC50 was < 4.00.

For `O=C(O)c1cc(Cl)ccc1S(=O)(=O)NC1CCN(C(=O)c2ccccc2C(F)(F)F)CC1`, the pIC50 is < 4.00.

Take `NCc1cccc(NC(=O)[C@H](NC(=O)OCc2ccccc2)C2CCC(c3ccccc3)CC2)c1` (some centres not stated): the pIC50 is 5.12 and 5.14.

Consider `NCc1ccccc1NC(=O)c1cc(Cl)cc(NC(=O)OCc2ccccc2)c1`, for which the pIC50 was < 4.00.

Take `Cc1cc(C)n(-c2ccc(NS(=O)(=O)c3ccc(Cl)cc3C(=O)O)cc2)n1`: the negative-log IC50 (pIC50) was < 4.00.

In the case of `O=C(O)c1cc(Cl)ccc1S(=O)(=O)N[C@H]1CCN(Cc2ccccc2)C(=O)C1`, the pIC50 is < 4.00.

As for `O=C(O)c1cc(Cl)ccc1S(=O)(=O)N[C@H]1CC[C@H]2CN(Cc3ccccc3)C[C@H]2C1`, the pIC50 was < 4.00.

Consider `Cc1ncc(COc2ccc([C@H](NC(=O)OCc3ccccc3)C(=O)Nc3cccc(CN)c3)cc2)cn1`, for which the pIC50 was < 4.00.

Consider `CCCCN1Cc2ccc(NS(=O)(=O)c3ccc(Cl)cc3C(=O)O)cc2C1`, for which the pIC50 is < 4.00.

Regarding `Cc1cc(-c2cccc([C@H](NC(=O)OCc3ccccc3)C(=O)Nc3cccc(CN)c3)c2)[nH]n1`, the pIC50 was < 4.00.

For `CCn1c(=O)c(N2CC[C@]3(CCSC3)C2)nc2ccccc21`, the pIC50 is < 4.00.

In the case of `NS(=O)(=O)c1cccc(-c2ccc(S(=O)(=O)Nc3ccc(Cl)cc3C(=O)O)cc2)c1`, the pIC50 is < 4.00.

Consider `CCn1c(=O)c(N2CCC[C@@H]2Cc2cccs2)nc2ccccc21`, for which the pIC50 is < 4.00.

Consider `CC(=O)N1CCN([C@H]2CC[C@H](NS(=O)(=O)c3ccc(Cl)cc3C(=O)O)CC2)CC1`, for which the pIC50 was < 4.00.

In the case of `O=C(O)c1cc(Cl)ccc1S(=O)(=O)Nc1nn(Cc2ccccc2)cc1Cl`, the pIC50 was < 4.00.

The values are drawn from ChEMBL document CHEMBL5604062, “ASAP - ZIKV NS2B-NS3 protease fluorescence dose response” (2024).
